Reference: patent US6063780A, “Method of treating a tumor” (priority 1998, dated 2000)
Read-outs that look alike come from different tables or passages of the source.

Key:
[1] = test system: MV-522 Human Lung Tumor; experiment: Oxaliplatin, Paclitaxel and Tirapazamine vs MV-522 Human Lung Tumor Xenograft (Example 4); details: for % Tumor Growth Inhibition (TGI) / Actual Tumor Wt. (Mean ± SEM) / Weight Change (Day 6) / # of Toxic Deaths / Mice with Complete Shrinkage / Mice with partial Tumor Shrinkage: oxaliplatin 15 mg/kg (MTD), paclitaxel 20 mg/kg, tirapazamine 70 mg/kg, i.p., qdx1; for % Tumor Growth Inhibition (TGI): in the animals without shrinkage; for Actual Tumor Wt. (Mean ± SEM) / Weight Change (Day 6): n=8; for # of Toxic Deaths / Mice with Complete Shrinkage / Mice with partial Tumor Shrinkage: number of 8 mice; for antitumor efficacy (in words): oxaliplatin experiment
Description: (§1) Nude mice weighing approximately 20 g were implanted s.c. by trocar with fragments of MV-522 human lung carcinomas harvested from s.c. growing tumors in nude mice hosts. When tumors were approximately 5 mm×5 mm in size (usually ten days after inoculation), the animals were pair-matched into treatment and control groups. Each group contained 8 tumored mice, each of which was ear-tagged and followed individually throughout the experiment. Tirapazamine was administered three hours prior to oxaliplatin, carboplatin and paclitaxel. The route and schedule for all drugs was i.p., qdxl.
(§2) Mice were weighed twice weekly, and tumor measurements were taken by calipers twice weekly, starting on Day 1. These tumor measurements were converted to mg tumor weight by a well-known formula, L×W^2 /2. The experiment was terminated when control tumors reached a size of 1 gram. Upon termination, all mice were weighed, sacrificed, and their tumors excised. Tumors were weighed, and the mean tumor weight per group was calculated.
(§3) With these agents, the final weight of a given tumor was subtracted from its own weight at the start of treatment on Day 1. This difference divided by the initial tumor weight is the % shrinkage. A mean % tumor shrinkage can be calculated from data from the mice in a group that experienced tumor regressions. If the MV-522 tumor completely disappeared in a mouse, this was considered a complete regression or complete tumor shrinkage.
Paclitaxel and tirapazamine were given at doses of 20 mg/kg and 70 mg/kg respectively (i.p.; qd×1).

[2] = cited from earlier work
[3] = test system: MV-522 Human Lung Tumor; experiment: Carboplatin, Paclitaxel and Tirapazamine vs MV-522 Human Lung Tumor Xenograft (confirming study, Example 3); details: for Final Tumor Wt. (Mean ± SEM) / Weight Change (Day 6): n=8; for antitumor efficacy (in words): carboplatin experiment / general statement; for Mean % Tumor Shrinkage: mice with partial shrinkage
Description: as §1, §2, §3
Paclitaxel and tirapazamine were administered i.p. as a single bolus at doses of 20 mg/kg (2/3 MTD) and 70 mg/kg (MTD) respectively. Carboplatin was given as a single i.p. bolus at doses of 100 mg/kg (MTD) or 50 mg/kg (1/2 MTD).

[4] = test system: FSaIIC Murine Fibrosarcoma; details: cited from earlier work
[5] = test system: mouse SCCVII and other tumors; details: multiple injections in conjunction with fractionated irradiation; cited from earlier work
[6] = carboplatin 50 mg/kg (1/2 MTD), paclitaxel 20 mg/kg, tirapazamine 70 mg/kg where combined, i.p., qdx1, in the animals without shrinkage
[7] = carboplatin 50 mg/kg (1/2 MTD), paclitaxel 20 mg/kg, tirapazamine 70 mg/kg where combined, i.p., qdx1
[8] = carboplatin 50 mg/kg (1/2 MTD), paclitaxel 20 mg/kg, tirapazamine 70 mg/kg where combined, i.p., qdx1, number of 8 mice
[9] = carboplatin 100 mg/kg (MTD), paclitaxel 20 mg/kg, tirapazamine 70 mg/kg where combined, i.p., qdx1, in the animals without shrinkage
[10] = carboplatin 100 mg/kg (MTD), paclitaxel 20 mg/kg, tirapazamine 70 mg/kg where combined, i.p., qdx1
[11] = carboplatin 100 mg/kg (MTD), paclitaxel 20 mg/kg, tirapazamine 70 mg/kg where combined, i.p., qdx1, number of 8 mice
[12] = groups without carboplatin, paclitaxel 20 mg/kg, tirapazamine 70 mg/kg, i.p., qdx1
[13] = groups without carboplatin, paclitaxel 20 mg/kg, tirapazamine 70 mg/kg, i.p., qdx1, number of 8 mice

Compound | % Tumor Growth Inhibition (TGI) [1] | Actual Tumor Wt. (Mean ± SEM) [1] | Weight Change (Day 6) [1] | # of Toxic Deaths [1] | Mice with Complete Shrinkage [1] | Mice with partial Tumor Shrinkage [1] | antitumor efficacy (in words) [1] | % Tumor Growth Inhibition (TGI) [3, 6] | Final Tumor Wt. (Mean ± SEM) [3, 7] | Weight Change (Day 6) [3, 7] | # of Toxic Deaths [3, 8] | Mice with Complete Shrinkage [3, 8] | Mice with partial Tumor Shrinkage [3, 8] | % Tumor Growth Inhibition (TGI) [3, 9] | Final Tumor Wt. (Mean ± SEM) [3, 10] | Weight Change (Day 6) [3, 10] | # of Toxic Deaths [3, 11] | Mice with Complete Shrinkage [3, 11] | Mice with partial Tumor Shrinkage [3, 11] | Final Tumor Wt. (Mean ± SEM) [3, 12] | also measured
O=C1[O][Pt]2([NH][C@@H]3CCCC[C@H]3[NH]2)[O]C1=O (relative stereo) [Oxaliplatin, cis-oxalato(trans-1-1,2-cyclohexanediamine) platinum (II)] | 8.2% | 731.5 ± 62.6 mg | +5.2% | 0 | 0 | 0 | not active |  |  |  |  |  |  |  |  |  |  |  |  |  | 
N.N.O=C([O-])C1(C(=O)[O-])CCC1.[Pt+2] [Carboplatin, platinum, diammine [1,1-cyclobutane-dicarboxylato(2)-0,0']-, (SP-4-2)] |  |  |  |  |  |  |  | 22.5% | 698.1 ± 160.5 mg | -1.7% | 0 | 0 | 0 | 39.7% | 556.5 ± 129.8 mg | -1.5% | 0 | 0 | 0 |  | pH of a 1% solution ([2]; 1% solution): 5-7; rate of aquation ([2]; compared with cisplatin): occurs at a slower rate than in the case of cisplatin; solubility in water ([2]; water): approximately 14 mg/mL; % Tumor Growth Inhibition (TGI) ([3]; carboplatin 100 mg/kg (MTD), paclitaxel 20 mg/kg, tirapazamine 70 mg/kg where combined, i.p., qdx1, in the animals without shrinkage, listed as carboplatin): approximately 40%
CC(=O)OC1C(=O)C2(C)C(O)CC3OCC3(OC(C)=O)C2C(OC(=O)c2ccccc2)C2(O)CC(OC(=O)C(O)C(NC(=O)c3ccccc3)c3ccccc3)C(C)=C1C2(C)C [Paclitaxel, 5β,20-Epoxy-1,2α,4,7β,10β,13α-hexahydroxytax-11-en-9-one 4,10-diacetate 2-benzoate 13-ester with (2R, 3S)-N-benzoyl-3-phenylisoserine] | 30.9% | 570.5 mg | +0.9% | 1 | 0 | 0 |  |  |  |  |  |  |  |  |  |  |  |  |  | 552.9 ± 68.6 mg | solubility in water (in words) ([2]; water): insoluble in water; Weight Change (Day 6) [3, 12]: +0.4%; # of Toxic Deaths [3, 13]: 1; Mice with Complete Shrinkage [3, 13]: 0; Mice with partial Tumor Shrinkage [3, 13]: 0; # of Toxic Deaths ([3]; groups without carboplatin, paclitaxel 20 mg/kg, tirapazamine 70 mg/kg, i.p., qdx1, number of 8 mice, listed as paclitaxel): one toxic death
Nc1n[n+]([O-])c2ccccc2[n+]1[O-] [Tirapazamine, 3-amino-1,2,4-benzotriazine 1,4-dioxide] | 2.5% | 769.1 ± 73.0 mg | -6.9% | 0 | 0 | 0 | not active |  |  |  |  |  |  |  |  |  |  |  |  | 835.3 ± 111.2 mg | dose enhancement / cytotoxic effect in combination ([4]; given just before single-dose cyclophosphamide, carmustine or melphalan): marked dose enhancement leading to synergistic cytotoxic effects on tumor cells; dose enhancement / cytotoxic effect in combination ([4]; given just prior to single-dose cisplatin): additive effect, except at the highest dose level of cisplatin; antitumor efficacy (in words) [3]: not active as a single agent; % Tumor Growth Inhibition (TGI) [3, 12]: 5.7%; Weight Change (Day 6) [3, 12]: -1.7%; # of Toxic Deaths [3, 13]: 0; Mice with Complete Shrinkage ([3]; ip, 70 mg/kg): 0; Mice with partial Tumor Shrinkage ([3]; ip, 70 mg/kg): 0; tumor cell kill with fractionated irradiation [5]: kills hypoxic cells, increases tumor cell kill while sparing normal tissue
Paclitaxel + Carboplatin |  |  |  |  |  |  |  | 49.8% | 474.0 ± 93.5 mg | +1.7% | 0 | 0 | 0 | 68.8% | 241.4 ± 70.3 mg | -1.3% | 0 | 0 | 2 |  | Mean % Tumor Shrinkage [3, 10]: 53.0%; Mean % Tumor Shrinkage ([3]; carboplatin 100 mg/kg (MTD), paclitaxel 20 mg/kg, tirapazamine 70 mg/kg where combined, i.p., qdx1, listed as paclitaxel-high dose carboplatin): 53%; Mice with partial Tumor Shrinkage ([3]; carboplatin 100 mg/kg (MTD), paclitaxel 20 mg/kg, tirapazamine 70 mg/kg where combined, i.p., qdx1, number of 8 mice, listed as paclitaxel-high dose carboplatin): two; antitumor efficacy (in words) [3]: even more effective
